In patent publication US20260001928A1 (CORTERIA PHARMACEUTICALS, priority 2022, published 2026):
*1 amine or outer side, *2 acyl side, *3 side chain or, on linkers, in order; H or OH if unused. Where a SMILES comes first, the peptide text is derived from it. Side-chain parts run from the residue outwards. [ ]: non-standard residue; d: D form. The star is where a group is joined. C18 diacid = O=C(O)CCCCCCCCCCCCCCCCC(=O)*; γGlu = O=C(O)[C@H](CCC(=O)[*:2])N[*:1]; Api = NC1(C(=O)O)CCNCC1; Pentanoyl = CCCCC(=O)*; AEEA = NCCOCCOCC(=O)O; Aib = CC(C)(N)C(=O)O

What was measured:
[1] = target: T1, CFR1R receptor (Homo sapiens, UniProt P34998); test: Activity at anti-target CFR1R receptor, cAMP assay in CRF1R-overexpression CHO-K1 cells; assay type: cell-based; conditions: 100% = Sauvagine at 100 nM
T1 construct: host or cells: CHO-K1 (clone 2)
T1 sequence (P34998 24-415): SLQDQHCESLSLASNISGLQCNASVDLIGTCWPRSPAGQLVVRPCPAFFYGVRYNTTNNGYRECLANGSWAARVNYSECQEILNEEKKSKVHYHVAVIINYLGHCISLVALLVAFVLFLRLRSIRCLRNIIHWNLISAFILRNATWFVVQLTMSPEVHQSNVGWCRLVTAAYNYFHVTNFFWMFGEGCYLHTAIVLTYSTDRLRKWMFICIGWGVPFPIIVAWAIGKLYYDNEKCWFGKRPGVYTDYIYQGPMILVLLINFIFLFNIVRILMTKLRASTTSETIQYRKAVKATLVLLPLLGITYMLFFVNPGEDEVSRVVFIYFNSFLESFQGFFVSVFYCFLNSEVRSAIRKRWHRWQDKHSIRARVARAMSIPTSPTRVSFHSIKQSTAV
Procedure, shortened: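 Grow clone 2 to near confluence at 37° C. under 5% CO2 in F12 (Hams) with 10% FBS and G418, harvest, and freeze in 10% DMSO. Thaw and plate at 4000 cells/well. Then proceed per the TeloHAEC method, normalising to Sauvagine 100 nM as maximum.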

[2] = target: T2, human CRF2a receptor (Homo sapiens, UniProt Q13324); test: Activity at human CRF2a receptor, cAMP functional assay in TeloHEAC cells; assay type: cell-based; conditions: TeloHEAC cells stably expressing human CRF2a receptor, relative to urocortin 2 (100 nM = 100%)
T2 construct: expressed in transfected cells; host or cells: TeloHEAC cells
T2 sequence (Q13324 1-411): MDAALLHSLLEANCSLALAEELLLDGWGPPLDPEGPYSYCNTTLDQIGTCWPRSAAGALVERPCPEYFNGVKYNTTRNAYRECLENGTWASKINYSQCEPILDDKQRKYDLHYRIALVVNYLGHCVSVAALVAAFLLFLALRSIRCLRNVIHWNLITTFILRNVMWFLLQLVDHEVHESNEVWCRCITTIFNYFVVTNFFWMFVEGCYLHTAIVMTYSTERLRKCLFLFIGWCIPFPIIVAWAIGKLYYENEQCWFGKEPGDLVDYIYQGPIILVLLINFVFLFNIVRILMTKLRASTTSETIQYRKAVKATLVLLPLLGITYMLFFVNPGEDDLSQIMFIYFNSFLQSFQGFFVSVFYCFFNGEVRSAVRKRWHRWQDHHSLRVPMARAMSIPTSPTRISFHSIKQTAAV
Procedure, shortened: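 TeloHEAC cells stably expressing human CRF2a (10000 cells/well) were treated with 16-point 1:2 compound dilutions in HBSS/20 mM HEPES with IBMX for 30 min at 37° C. cAMP was read by HTRF (665/620 nm ratio). EC50 was the concentration giving 50% activation, with 100 nM urocortin 2 set as 100%.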

| Emax (% I) [1] [% I] | EC50 [2] [nM] | EC50 ([1]; cAMP) [nM] | Compound |
| --- | --- | --- | --- |
| 42 | 0.21 |  | CCCCC(=O)N[C@H](C(=O)N[C@@H](CC(C)C)C(=O)N[C@@H](CO)C(=O)N[C@@H](CC(C)C)C(=O)N[C@@H](CC(=O)O)C(=O)N[C@@H](C(=O)N1CCC[C@H]1C(=O)N[C@H](C(=O)NCC(=O)N[C@@H](CC(C)C)C(=O)N[C@@H](CCCCNC(=O)CC[C@H](NC(=O)CCCCCCCCCCCCCCCCC(=O)O)C(=O)O)C(=O)N[C@@H](CCCCN)C(=O)N[C@H](C(=O)N[C@@H](CC(C)C)C(=O)N[C@@H](CC(C)C)C(=O)N[C@@H](CCC(=O)O)C(=O)N[C@@H](CCC(N)=O)C(=O)N[C@@H](CCC(=O)O)C(=O)N[C@@H](CCCCN)C(=O)N[C@@H](CCC(N)=O)C(=O)N[C@@H](CCCCN)C(=O)N[C@@H](CCCCN)C(=O)N[C@@H](CCC(N)=O)C(=O)N[C@@H](CCCNC(=N)N)C(=O)N[C@@H](CCC(=O)O)C(=O)N[C@@H](CCC(N)=O)C(=O)N[C@@H](C)C(=O)N[C@@H](CCC(=O)O)C(=O)N[C@H](C(=O)N[C@@H](CC(N)=O)C(=O)NC(C)(C)C(=O)N[C@@H](CCC(N)=O)C(=O)N[C@H](C(=O)N[C@@H](CC(C)C)C(=O)N[C@@H](C)C(=O)N[C@@H](CCC(N)=O)C(=O)N[C@H](C(N)=O)C(C)C)[C@@H](C)CC)[C@@H](C)O)[C@@H](C)CC)[C@@H](C)CC)C(C)C)C(C)C [compound 195] (Pentanoyl-VLSLD[dV]PIGLK([γGlu-C18 diacid])KILLEQEKQKKQREQAETN[Aib]QILAQV-NH2) |
| 9 | 2.2 | > 250 | CC[C@H](C)[C@H](NC(C)=O)C(=O)N[C@H](C(=O)N[C@@H](CC(C)C)C(=O)N[C@@H](CO)C(=O)N[C@@H](CC(C)C)C(=O)N[C@@H](CC(=O)O)C(=O)N[C@@H](C(=O)N1CCC[C@H]1C(=O)N[C@H](C(=O)N[C@@H](CCCCN)C(=O)N[C@@H](CC(C)C)C(=O)N[C@@H](CCCCNC(=O)COCCOCCNC(=O)COCCOCCNC(=O)CC[C@H](NC(=O)CCCCCCCCCCCCCCCCC(=O)O)C(=O)O)C(=O)N[C@@H](CCCCN)C(=O)N[C@H](C(=O)N[C@@H](CC(C)C)C(=O)N[C@@H](CC(C)C)C(=O)N[C@@H](CCC(=O)O)C(=O)N[C@@H](CCC(N)=O)C(=O)N[C@@H](CCC(=O)O)C(=O)N[C@@H](CCCCN)C(=O)N[C@@H](CCC(N)=O)C(=O)N[C@@H](CCCCN)C(=O)NC(C)(C)C(=O)N[C@@H](CCC(N)=O)C(=O)N[C@@H](CCCNC(=N)N)C(=O)N[C@@H](CCC(=O)O)C(=O)N[C@@H](CCC(N)=O)C(=O)N[C@@H](C)C(=O)N[C@@H](CCC(=O)O)C(=O)N[C@H](C(=O)N[C@@H](CC(N)=O)C(=O)NC1(C(=O)N[C@@H](CCC(N)=O)C(=O)N[C@H](C(=O)N[C@@H](CC(C)C)C(=O)N[C@@H](C)C(=O)N[C@@H](CCC(N)=O)C(=O)N[C@H](C(N)=O)C(C)C)[C@@H](C)CC)CCNCC1)[C@@H](C)O)[C@@H](C)CC)[C@@H](C)CC)C(C)C)C(C)C [compound 196] (Ac-IVLSLD[dV]PIKLK([AEEA-AEEA-γGlu-C18 diacid])KILLEQEKQK[Aib]QREQAETN[Api]QILAQV-NH2) |
